For orientation: melting point means the temperature of the solid-liquid transition. The molecule `Cc1cc(S(=O)(=O)NC(=O)c2cn3cc(C(F)(F)F)cc(Cl)c3n2)c(C)cc1C#N` [Compound 19, 8-chloro-N-[(4-cyano-2,5-dimethylphenyl)sulfonyl]-6-(trifluoromethyl)imidazo[1,2-a]pyridine-2-carboxamide] gave a melting point of 244 to 245 °C. `CCc1ccc(Cl)c(S(=O)(=O)NC(=O)c2cn3cc(C(F)(F)F)cc(Cl)c3n2)c1` [Compound 356, 8-chloro-N-[(2-chloro-5-ethylphenyl)sulfonyl]-6-(trifluoromethyl)imidazo[1,2-a]pyridine-2-carboxamide] gave a melting point greater than 250 °C. Consider `CCn1cc(S(=O)(=O)NC(=O)c2cn3cc(C(F)(F)F)cc(Cl)c3n2)c(C)n1` [Compound 357, 8-chloro-N-[(1-ethyl-3-methyl-1H-pyrazol-4-yl)sulfonyl]-6-(trifluoromethyl)-imidazo[1,2-a]pyridine-2-carboxamide], for which the melting point was 251 to 252 °C. For `Cc1cc(S(=O)(=O)[N-]C(=O)c2cn3cc(C(F)(F)F)cc(Cl)c3n2)c(C)cc1C#N.[Na+]` [Compound 477], the melting point is greater than 250 °C. The same measure for `COc1ccc(Cl)c(S(=O)(=O)[N-]C(=O)c2cn3cc(C(F)(F)F)cc(Cl)c3n2)c1.[Na+]` [Compound 478]: greater than 250 °C; for `Cc1cc(S(=O)(=O)NC(=O)c2cn3cc(C(F)(F)F)cc(Cl)c3n2)c(C)cc1C#N` [Compound 479]: 185 to 186 °C.

For the origin of these results see US8735588B2, “Nematocidal sulfonamides” (E I Du Pont De Nemours and Company, priority 2009, dated 2014).
